According to the Kinase Knowledgebase extract (Sharma et al. 2016):

Target: EGFR (UniProt P00533)
Sequence (P00533 whole entry, looked up): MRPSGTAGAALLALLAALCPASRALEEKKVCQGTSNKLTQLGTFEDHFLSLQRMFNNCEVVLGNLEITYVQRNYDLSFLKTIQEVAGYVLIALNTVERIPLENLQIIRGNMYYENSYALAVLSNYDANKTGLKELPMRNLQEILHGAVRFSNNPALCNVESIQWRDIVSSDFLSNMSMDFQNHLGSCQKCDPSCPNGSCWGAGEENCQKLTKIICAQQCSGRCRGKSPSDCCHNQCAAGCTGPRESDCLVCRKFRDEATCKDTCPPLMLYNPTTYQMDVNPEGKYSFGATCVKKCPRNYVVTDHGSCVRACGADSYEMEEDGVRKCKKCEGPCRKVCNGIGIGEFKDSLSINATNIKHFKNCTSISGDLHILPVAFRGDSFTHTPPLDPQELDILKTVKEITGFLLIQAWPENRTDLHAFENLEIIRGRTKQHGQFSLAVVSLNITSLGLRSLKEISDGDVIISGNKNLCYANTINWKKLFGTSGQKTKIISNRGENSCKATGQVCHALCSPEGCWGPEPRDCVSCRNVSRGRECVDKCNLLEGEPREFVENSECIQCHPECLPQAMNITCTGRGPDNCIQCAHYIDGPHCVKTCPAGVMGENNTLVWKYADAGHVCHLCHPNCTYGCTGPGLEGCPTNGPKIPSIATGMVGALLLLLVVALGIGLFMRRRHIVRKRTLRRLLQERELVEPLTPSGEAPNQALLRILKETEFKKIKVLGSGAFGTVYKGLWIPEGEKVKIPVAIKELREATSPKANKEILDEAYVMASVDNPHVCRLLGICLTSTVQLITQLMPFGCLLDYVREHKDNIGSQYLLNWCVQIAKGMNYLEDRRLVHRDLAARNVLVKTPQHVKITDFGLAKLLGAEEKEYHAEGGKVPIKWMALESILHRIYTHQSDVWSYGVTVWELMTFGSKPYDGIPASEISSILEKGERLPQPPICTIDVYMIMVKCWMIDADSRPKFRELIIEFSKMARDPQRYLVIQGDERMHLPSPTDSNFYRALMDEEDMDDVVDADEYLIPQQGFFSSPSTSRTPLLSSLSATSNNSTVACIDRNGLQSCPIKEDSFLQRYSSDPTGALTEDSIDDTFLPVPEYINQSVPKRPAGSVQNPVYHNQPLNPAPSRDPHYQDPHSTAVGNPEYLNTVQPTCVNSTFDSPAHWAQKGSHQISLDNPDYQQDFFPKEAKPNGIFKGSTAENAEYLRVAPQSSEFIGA

Compound	IC50 [nM]
COc1cc2c(Nc3c(F)cccc3F)ncnc2cc1O[C@@H]1CO[C@@H]2[C@H]1OC[C@H]2F	< 50
COc1cc2c(Nc3ccc(F)c(Cl)c3)ncnc2cc1O[C@@H]1CO[C@@H]2[C@H]1OC[C@H]2F	< 50
COc1cc2c(Nc3cc(Cl)c(Br)cc3F)ncnc2cc1O[C@H]1CO[C@H]2[C@@H]1OC[C@@H]2OC	< 50
COc1cc2c(Nc3cc(F)c(Br)c(Cl)c3)ncnc2cc1O[C@@H]1CO[C@@H]2[C@H]1OC[C@H]2F	< 50
COc1cc2c(Nc3ccc(Cl)c(Cl)c3)ncnc2cc1OCc1nccn1Cc1ccccc1	< 50
CCO[C@H]1CO[C@H]2[C@@H]1OC[C@@H]2Oc1cc2ncnc(Nc3ccc(Br)c(Cl)c3)c2cc1OC	< 50
COc1cc2c(Nc3ccc(Br)c(Cl)c3)ncnc2cc1O[C@@H]1CO[C@@H]2[C@H]1OC[C@H]2NS(C)(=O)=O	< 50
COc1cc2c(Nc3ccc(Br)c(Cl)c3F)ncnc2cc1O[C@H]1CO[C@H]2[C@@H]1OC[C@@H]2OC	< 50
COc1cc2c(Nc3cc(Cl)c(Cl)c(Cl)c3)ncnc2cc1O[C@@H]1CO[C@@H]2[C@H]1OC[C@H]2F	< 50
COc1cc2c(Nc3ccc(F)cc3C(F)(F)F)ncnc2cc1O[C@@H]1CO[C@@H]2[C@H]1OC[C@H]2F	< 50
COc1cc2c(Nc3cc(C)cc(C)c3)ncnc2cc1O[C@@H]1CO[C@@H]2[C@H]1OC[C@H]2F	< 50
COc1cc2c(Nc3c(F)cc(F)cc3Br)ncnc2cc1O[C@@H]1CO[C@@H]2[C@H]1OC[C@H]2F	< 50
COc1cc2c(Nc3ccc(F)cc3)ncnc2cc1O[C@@H]1CO[C@@H]2[C@H]1OC[C@H]2F	< 50
COc1cc2c(Nc3ccc(Cl)c(Cl)c3)ncnc2cc1OCc1noc(-c2ccccc2OC)n1	< 50
COc1cc2c(Nc3c(F)cc(F)cc3F)ncnc2cc1O[C@@H]1CO[C@@H]2[C@H]1OC[C@H]2F	< 50
COc1cc2c(Nc3ccc(Br)c(Cl)c3F)ncnc2cc1OC[C@@H]1CN2CCC[C@H]2C(=O)N1	< 50
COc1cc2c(Nc3ccc(Br)c(Cl)c3Cl)ncnc2cc1OC[C@@H]1CO[C@H]2[C@@H]1OC[C@@H]2O	< 50
COc1cc2c(Nc3cc(Cl)c(Br)cc3F)ncnc2cc1OC[C@@H]1CN2CCC[C@H]2CO1	< 50
COc1cc2c(Nc3cc(F)c(Oc4ccc(Cl)cc4)c(F)c3)ncnc2cc1O[C@@H]1CO[C@@H]2[C@H]1OC[C@H]2F	< 50
COc1cc2c(Nc3ccc(Br)c(Cl)c3)ncnc2cc1O[C@H]1CO[C@H]2[C@@H]1OC[C@@]21COC(C)(C)O1	< 50

Compound	IC50 [nM]
COc1cc2c(Nc3ccc(Cl)c(Cl)c3)ncnc2cc1OCCC1CC2CCC(C1)N2C (stereo not given)	< 50
COc1cc2c(Nc3ccc(Cl)c(Cl)c3)ncnc2cc1OCc1nc(CS(=O)(=O)c2ccccn2)no1	< 50
COc1cc2c(Nc3cc(Cl)c(Cl)cc3F)ncnc2cc1OC[C@H]1C[C@@H]2CN(C)C[C@@H]2C1	< 50
COc1cc2c(Nc3cc(Cl)ccc3C)ncnc2cc1O[C@@H]1CO[C@@H]2[C@H]1OC[C@H]2F	< 50
COc1cc2c(Nc3ccc(Br)c(Cl)c3Cl)ncnc2cc1OC[C@H]1CN2CCOC[C@H]2CO1	< 50
COc1cc2c(Nc3cc(Cl)c(Br)cc3F)ncnc2cc1OCC1CN(C)CCO1 (stereo not given)	< 50
COc1cc2c(Nc3ccc(Br)c(Cl)c3)ncnc2cc1O[C@H]1CO[C@@H]2CCO[C@H]12	< 50
COc1cc2c(Nc3cccc(Cl)c3F)ncnc2cc1OCC1CN(C)CCO1 (stereo not given)	< 50
COc1ccc(-c2nc(COc3cc4ncnc(Nc5ccc(Cl)c(Cl)c5)c4cc3OC)no2)cc1	< 50
COc1cc2c(Nc3ccc(Br)c(Cl)c3)ncnc2cc1O[C@H]1CO[C@@H]2[C@H]1OC[C@@H]2N1CCN(C)CC1	< 50
COc1cc2c(Nc3cc(Cl)c(Cl)cc3F)ncnc2cc1OC[C@@H]1CO[C@H]2[C@@H]1OC[C@@H]2O	< 50
COc1cc2c(Nc3cccc(Cl)c3F)ncnc2cc1O[C@H]1CO[C@H]2[C@@H]1OC[C@@H]2OC	< 50
COc1cc2c(Nc3ccc(Br)c(Cl)c3)ncnc2cc1O[C@H]1CO[C@H]2[C@@H]1OC[C@]2(O)C(F)(F)F	< 50
COc1cc2c(Nc3ccc(Cl)c(Cl)c3F)ncnc2cc1O[C@@H]1CO[C@@H]2[C@H]1OC[C@H]2F	< 50
COc1cc2c(Nc3ccccc3Br)ncnc2cc1O[C@@H]1CO[C@@H]2[C@H]1OC[C@H]2F	< 50
COc1cc2c(Nc3cccc(Cl)c3C)ncnc2cc1OCC1CN(C)CCO1 (stereo not given)	< 50
COc1cc2c(Nc3ccc(Cl)c(Cl)c3F)ncnc2cc1OC[C@H]1C[C@@H]2CN(C)C[C@@H]2C1	< 50
COc1cc2c(Nc3ccc(Br)c(Cl)c3Cl)ncnc2cc1OC[C@@H]1CN2CCOC[C@H]2CO1	< 50
COc1cc2c(Nc3cccc(Cl)c3F)ncnc2cc1O[C@@H]1CO[C@@H]2[C@H]1OC[C@H]2F	< 50

Further lines, results first:

IC50 [nM]	Compound
< 50	COc1cc2c(Nc3cc(Cl)c(Cl)cc3F)ncnc2cc1OC[C@H]1CN2CCOC[C@H]2CO1
< 50	CC[C@@H](C)CN1CCOC(COc2cc3ncnc(Nc4ccc(Cl)c(Cl)c4)c3cc2OC)C1 (stereo not given in full)
< 50	COc1cc2c(Nc3ccc(Cl)c(Cl)c3)ncnc2cc1OCc1cscn1
< 50	CCC(C(=O)N1CCOC(COc2cc3ncnc(Nc4ccc(Cl)c(Cl)c4)c3cc2OC)C1)c1ccccc1 (stereo not given)
< 50	COc1cc2c(Nc3ccc(Cl)c(Cl)c3)ncnc2cc1OCc1csc(C2CCN(C)CC2)n1
< 50	COc1cc2c(Nc3ccc(Cl)c(Cl)c3)ncnc2cc1OCc1nc(-c2ccncc2)cs1
< 50	COc1cc2c(Nc3ccc(Cl)c(Cl)c3)ncnc2cc1OCC1CN(S(C)(=O)=O)CCCO1 (stereo not given)
< 50	COc1cc2c(Nc3ccc(Cl)c(Cl)c3)ncnc2cc1OCC1CN(C(=O)CCc2ccccc2)CCO1 (stereo not given)
< 50	COc1cc2c(Nc3ccc(Cl)c(Cl)c3)ncnc2cc1OCC1CN(CCc2ccccc2)CCO1 (stereo not given)
< 50	COc1cc2c(Nc3ccc(Cl)c(Cl)c3)ncnc2cc1OCC1CN(C(=O)C2CCCC2)CCO1 (stereo not given)
< 50	COc1cc2c(Nc3ccc(Cl)c(Cl)c3)ncnc2cc1OCc1csc([C@@H]2CCCN2C)n1
< 50	COc1cc2c(Nc3ccc(Cl)c(Cl)c3)ncnc2cc1OCc1csc(N2CCNCC2)n1
< 50	CCN1CCN(c2noc(COc3cc4ncnc(Nc5ccc(Cl)c(Cl)c5)c4cc3OC)n2)CC1
< 50	COc1cc2c(Nc3ccc(Cl)c(Cl)c3)ncnc2cc1OCc1noc(C2CCN(C(=O)OC(C)(C)C)CC2)n1
< 50	COc1cc2c(Nc3ccc(Cl)c(Cl)c3)ncnc2cc1OCc1noc(C2CCCN2)n1 (stereo not given)
< 50	CC(C)Oc1cc2c(Nc3ccc(Cl)c(Cl)c3)ncnc2cc1OCC1CN(C)CCO1 (stereo not given)
< 50	CCCCN1CCOC(COc2cc3ncnc(Nc4ccc(Cl)c(Cl)c4)c3cc2OC)C1 (stereo not given)
< 50	COc1cc2c(Nc3ccc(Cl)c(Cl)c3F)ncnc2cc1OC[C@H]1CN2CCOC[C@H]2CO1
< 50	COCCOc1cc2c(Nc3ccc(Cl)c(Cl)c3)ncnc2cc1OCC1CN(C)CCO1 (stereo not given)
< 50	CCCCS(=O)(=O)N1CCOC(COc2cc3ncnc(Nc4ccc(Cl)c(Cl)c4)c3cc2OC)C1 (stereo not given)
< 50	COc1cc2c(Nc3ccc(Cl)c(Cl)c3)ncnc2cc1OCCN1CCCC1
< 50	COc1cccc(CC(=O)N2CCOC(COc3cc4ncnc(Nc5ccc(Cl)c(Cl)c5)c4cc3OC)C2)c1 (stereo not given)
< 50	COc1cc2c(Nc3ccc(Cl)c(Cl)c3)ncnc2cc1OCC1CN(CC(N)=O)CCO1 (stereo not given)
< 50	COc1cc2c(Nc3ccc(F)c(Cl)c3)ncnc2cc1OCC1CN(C)CCO1 (stereo not given)
< 50	COc1cc2c(Nc3ccc(Cl)c(Cl)c3)ncnc2cc1OCc1nc(-c2cccnc2)cs1
< 50	COc1cc2c(Nc3ccc(Cl)c(Cl)c3)ncnc2cc1OCC1CN(CCOCCO)CCO1 (stereo not given)

IC50 [nM]	Compound
< 50	COc1cc2c(Nc3ccc(Br)cc3Cl)ncnc2cc1OCC1CN(C)CCO1 (stereo not given)
< 50	COc1cc2c(Nc3ccc(Cl)c(Cl)c3)ncnc2cc1OCC1CN(C(=O)c2cc(F)ccc2F)CCO1 (stereo not given)
50 to 1000	COc1cc2c(Nc3ccc(Cl)c(Cl)c3)ncnc2cc1OCc1csc2ccc(Cl)cc12
< 50	COc1cc2c(Nc3ccc(Cl)c(Cl)c3)ncnc2cc1OCc1nc(N(C)C)no1
< 50	COc1cc2c(Nc3ccc(Cl)c(Cl)c3)ncnc2cc1OCC1CN(C(=NC#N)N2CCCC2)CCO1 (stereo not given)
< 50	COc1cc2c(Nc3ccc(Cl)c(Cl)c3)ncnc2cc1OCC1CN(C/C=C/Br)CCO1 (stereo not given)
< 50	COc1cc2c(Nc3ccc(Cl)c(Cl)c3)ncnc2cc1OCc1nc(-c2ccccn2)cs1
< 50	CCCCc1ccc(C(=O)N2CCOC(COc3cc4ncnc(Nc5ccc(Cl)c(Cl)c5)c4cc3OC)C2)cc1 (stereo not given)
< 50	CCCCC(CC)C(=O)N1CCOC(COc2cc3ncnc(Nc4ccc(Cl)c(Cl)c4)c3cc2OC)C1 (stereo not given)
< 50	COc1cc2c(Nc3ccc(Cl)c(Cl)c3)ncnc2cc1OCC1CN(CCCCF)CCO1 (stereo not given)
< 50	COc1cc2c(Nc3ccc(Cl)c(Cl)c3C)ncnc2cc1OCC1CN(C)CCO1 (stereo not given)
< 50	COc1cc2c(Nc3ccc(Cl)c(Cl)c3)ncnc2cc1OCC1CN(C(=O)c2ccoc2)CCO1 (stereo not given)
< 50	COc1cc2c(Nc3ccc(Cl)c(Cl)c3)ncnc2cc1OCc1noc(-c2ccccc2)n1
< 50	COc1cc2c(Nc3ccc(Cl)c(Cl)c3)ncnc2cc1OCC1CN(CCC2OCCO2)CCO1 (stereo not given)
< 50	COc1cc2c(Nc3ccc(Cl)c(Cl)c3)ncnc2cc1OCc1nnc(-c2ccc(C)cc2)o1
< 50	COc1cc2c(Nc3ccc(Cl)c(Cl)c3)ncnc2cc1OCC1CN(CC2CC2)CCCO1 (stereo not given)
< 50	COc1cc2c(Nc3ccc(Cl)c(Cl)c3)ncnc2cc1OCCN1C(=O)c2ccccc2C1=O
< 50	COc1cc2c(Nc3ccc(Cl)c(Cl)c3)ncnc2cc1OCC1CN(C(C)=O)CCCO1 (stereo not given)
< 50	COc1cc2c(Nc3ccc(Cl)c(Cl)c3)ncnc2cc1OCc1csc(C2CCCCN2)n1 (stereo not given)
< 50	COc1cc2c(Nc3ccc(Br)c(Cl)c3)ncnc2cc1O[C@H]1COC[C@H]1OC
< 50	COc1cc2c(Nc3ccc(Cl)c(Cl)c3)ncnc2cc1OCC1CN(C(=O)C(C)(C)C)CCO1 (stereo not given)
< 50	COc1cc2c(Nc3ccc(Cl)c(Cl)c3)ncnc2cc1OCC(=O)N1CCOCC1
< 50	COc1cc2c(Nc3ccc(Cl)c(Cl)c3)ncnc2cc1OC1CCCC1
< 50	COc1cc2c(Nc3ccc(Cl)c(Cl)c3)ncnc2cc1OCC1CN(CCF)CCO1 (stereo not given)
< 50	COc1cc2c(Nc3ccc(Cl)c(Cl)c3)ncnc2cc1OCC1CN(C(C)C)CCO1 (stereo not given)
